Assay results taken from PMC12290673, “Antileishmanial and Antitoxoplasmal Activities of 1,4-Dihydropyridines” (ACS Omega, 2025).

Experiments:
[1] = tested on: Vero cells; assay: Cytotoxicity assay (MTT), Vero cells; assay type: cell-based, African Green Monkey; settings: Chlorocebus sabaeus, 72 h, mean ± SD
Method: (§1) The MTT colorimetric assay was conducted to assess the cytotoxicity of the compounds according to a method described previously. Briefly, Vero cells or macrophages were cultured in 96-well plates (5 × 10^3 cells/well/200 μL) in RPMI 1640 medium with 10% FBS at 37 °C and under 5% CO2 for 24 h. Thereafter, PBS was used to wash the cells. Then, the compounds in RPMI complete medium with 10% FBS (at varying concentrations of 50, 25, 12.5, 6.25, 3.13, 1.65, 0.75, or 0.37 μg mL^–1) were added to 96-well plates and incubated for 72 h. Cells treated with a medium containing only DMSO (1%) were used as the negative control. After washing, MTT (1 mg mL^–1 in RPMI 1640 medium) was added to each well. The cells were incubated for 4 h, and the supernatant was removed. Next, 150 μL of DMSO was added, and a microplate absorbance spectrophotometer was applied for colorimetric analysis (λ = 540 nm). Cytotoxic effects were expressed by IC50 values (concentration that caused a 50% reduction of viable cells). The experiment was performed in triplicate.

[2] = tested on: L. major promastigotes; assay: Activity against L. major promastigotes (MTT, 72 h); assay type: cell-based, Leishmania major; settings: Leishmania major, mean ± SD, read-out: EC50 L. major prom
Method: (§2) L. major promastigotes were isolated and maintained according to a described method. BALB/c mice were injected at the hind footpads with 1 × 10^6 L. major metacyclic promastigotes. L. major amastigotes were collected from the infected mice. After 8 weeks had elapsed since inoculation, Schneider’s medium (Invitrogen, USA) containing antibiotics and 10% FBS was used to transform isolated amastigotes into promastigotes by incubation at 26 °C. Amastigote-derived promastigotes with less than five in vitro passages were only used for infection.
To assess the activity of the compounds against L. major promastigotes, 10^6 promastigotes/mL were cultured in 96-well plates in Schneider’s medium with 10% FBS. Then, the compounds or amphotericin B (AmB) were added to obtain the final concentrations (50, 25, 12.5, 6.25, 3.13, 1.65, 0.75, or 0.37 μg mL^–1). Negative control wells contained cultures with DMSO (1%) only. Plates were incubated at 26 °C for 72 h to evaluate the antiproliferative effect. The colorimetric MTT method was used to count viable promastigotes under a microplate absorbance spectrophotometer (xMark, Bio-Rad, USA) at 570 nm. The experiment was performed in triplicate.

[3] = tested on: L. major amastigotes; assay: Activity against L. major amastigotes in peritoneal macrophages (percentage of infected macrophages, Giemsa, 72 h); assay type: cell-based, Leishmania major; settings: Leishmania major, intracellular amastigotes, mean ± SD, read-out: EC50 L. major ama
Method: as §2
(§3) Female BALB/c mouse peritoneal macrophages (6–8 weeks old) were used to culture L. major amastigotes to assess the activity of the compounds against amastigotes. Briefly, 1 mL of 3% Brewer’s thioglycollate medium/mouse was injected into the peritoneal cavity. After 4 days, the abdominal skin was removed to expose the peritoneal wall. Then, 3 mL of RPMI 1640 medium was injected before cells were collected by aspiration, whereupon 96-well plates containing RPMI 1640 medium with 10% FBS were used to culture 5 × 10^4 cells/well, which were incubated at 37 °C under 5% CO2 for 4 h. After washing with PBS, RPMI 1640 medium containing 5 × 10^5 promastigotes were added to each well. Next, the cells were incubated at 37 °C under humidified 5% CO2 for 24 h to enhance infection and differentiation of amastigotes. Washing with PBS several times removed free promastigotes. Fresh complete RPMI 1640 medium containing one of the tested compounds or AmB at the desired final concentration (50, 25, 12.5, 6.25, 3.13, 1.65, 0.75, or 0.37 μg mL^–1) was added and incubated at 37 °C under a humidified 5% CO2 atmosphere for 72 h. DMSO (1%), only in complete RPMI media, was used as the negative control. The percentage of infected macrophages was assessed microscopically after the medium was removed, followed by washing with PBS, fixation with methanol, and staining with Giemsa. The reading was performed in triplicate. Handling of the laboratory animals followed the instructions and rules of the Committee of Research Ethics, Deanship of Scientific Research, Qassim University, permission number 20–03–20.

[4] = tested on: macrophages; assay: Cytotoxicity assay (MTT), macrophages; assay type: cell-based, BALB/c mouse; settings: Mus musculus, Macrophage; 72 h, mean ± SD; read-out: IC50 macro
Method: as §3, §1

[5] = tested on: T. gondii tachyzoites (RH strain); assay: Anti-Toxoplasma activity (infection index in Vero cells, 72 h); assay type: cell-based, Toxoplasma gondii; settings: Toxoplasma gondii, Vero, mean ± SD
Method: Tachyzoites of the T. gondii RH strain were cultivated in Vero cells according to a published method. Complete RPMI 1640 medium (Invitrogen, USA) with 10% fetal bovine serum (FBS, Invitrogen, USA) was used to culture Vero cells in 96-well plates (5 × 10^3 cells/well in 200 μL of medium), which were incubated at 37 °C and under 5% CO2 for 24 h. This was followed by washing with phosphate-buffered saline (PBS) to remove the medium. Then, RPMI 1640 medium with 2% FBS containing T. gondii tachyzoites (RH strain) at a ratio of 5 (parasite): 1 (Vero cells) was added. After incubation at 37 °C and under 5% CO2 for 5 h, the cells were washed with PBS and overlaid with medium containing one of the tested compounds or atovaquone (ATO) at 50, 25, 12.5, 6.25, 3.13, 1.65, 0.75, or 0.37 μg mL^–1.
After incubation at 37 °C and under 5% CO2 for 72 h, the cells were stained with 1% toluidine before being examined under an inverted photomicroscope (MCD-400, Leica, Japan) to determine the T. gondii infection index (number of infected cells from 200 tested cells). The experiment was performed in triplicate.

[6] = tested on: L. amazonensis amastigotes; parameters: method as in Oliveira and co-workers; settings: ref Oliveira and co-workers; read-out: IC50 against L. amazonensis amastigotes; cited from earlier work

CCOC(=O)C1=C(C)NC2=C(C(=O)CC(C)(C)C2)C1c1cccc(F)c1 (stereo not drawn) [Compound 7]
> 58.2 µM: IC50 [1] | EC50 [2] | EC50 [3] | IC50 [4] | EC50 [5]
12.5 µM: IC50 [6]
